Values quoted from earlier work, collected in patent publication US20110105450A1, “OPHTHALMIC FORMULATIONS OF FLUTICASONE AND METHODS OF USE” (Aciex Therapeutics, Inc., priority 2009, published 2011).
In brackets after ≈: the same amount, converted by molar mass.

solubility in 95% ethanol (95% ethanol): slightly soluble
solubility in dimethyl sulfoxide (dimethyl sulfoxide): freely soluble
solubility in dimethyl-formamide (dimethyl-formamide): freely soluble
solubility in methanol (methanol): slightly soluble
solubility in water (water): 0.14 µg/mL (≈ 0.28 µM)
Compound: CCC(=O)O[C@]1(C(=O)SCF)[C@H](C)C[C@H]2[C@@H]3C[C@H](F)C4=CC(=O)C=C[C@]4(C)[C@@]3(F)[C@@H](O)C[C@@]21C [Fluticasone propionate, S-fluoromethyl-6-α-9-difluoro-11-β-hydroxy-16-α-methyl-3-oxoandrosta-1,4-diene-17-β-carbothioate, 17-propionate]
